PubChem BioAssay (NCI)
Several values for one entry are separate records, joined by “and”; a condition that tells them apart may be missing. Identical values can stand only once.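 Interpolation was linear, between the two tested concentrations surrounding the appropriate level; five concentrations were tested over 48 hours in 96-well plates. GI50 is the concentration that inhibits growth by half. TGI: total growth inhibition.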

How the values were obtained:
Assay in all cases: NCI-60 cell line screen, 48 h
NCI-H23 lung = tested on: NCI-H23 lung
SN12C renal = tested on: SN12C renal
A549 NSCLC = tested on: A549 NSCLC
CAKI-1 renal = tested on: CAKI-1 renal
HCC-2998 colon = tested on: HCC-2998 colon
UO-31 renal = tested on: UO-31 renal
KM12 colon = tested on: KM12 colon
CCRF-CEM leukemia = tested on: CCRF-CEM leukemia
SK-MEL-2 melanoma = tested on: SK-MEL-2 melanoma
HOP-92 NSCLC = tested on: HOP-92 NSCLC

| SMILES | GI50 (NCI-H23 lung) [µM] | TGI (NCI-H23 lung) | GI50 (SN12C renal) [µM] | TGI (SN12C renal) | GI50 (A549 NSCLC) | TGI (A549 NSCLC) | GI50 (CAKI-1 renal) | TGI (CAKI-1 renal) | GI50 (HCC-2998 colon) [µM] | TGI (HCC-2998 colon) | GI50 (UO-31 renal) | TGI (UO-31 renal) | GI50 (KM12 colon) | TGI (KM12 colon) | GI50 (CCRF-CEM leukemia) [µM] | TGI (CCRF-CEM leukemia) | GI50 (SK-MEL-2 melanoma) [µM] | TGI (SK-MEL-2 melanoma) | GI50 (HOP-92 NSCLC) | TGI (HOP-92 NSCLC) |
| --- | --- | --- | --- | --- | --- | --- | --- | --- | --- | --- | --- | --- | --- | --- | --- | --- | --- | --- | --- | --- |
| O=C1Nc2ccc(C(=O)c3ccco3)cc2/C1=C/c1cc(Cl)c(O)c(Cl)c1 | 4.74 | 21.7 µM | 6.53 | > 25 µM | 6.77 µM | > 24 µM | 1.72 µM | > 20.9 µM | 6.07 | 17.7 µM | 4.56 µM | 11.5 µM | 3.62 µM | > 17.7 µM | 1.76 | > 25 µM | 2.86 | 7.21 µM | 3.2 µM | 14.4 µM |
| COc1cc(Nc2nccc(Nc3ccc4c(C)[nH]nc4c3)n2)cc(OC)c1OC | 2.51 | 7.82 µM | 2.12 | 20.8 µM | 1.26 µM | 5.41 µM | 1.05 µM | 4.62 µM | 3.17 | 8.46 µM | 0.842 µM | 5.19 µM | 0.68 µM | 3.06 µM | 6 | > 25 µM | 1.23 | 5.09 µM | 0.191 µM | 1.38 µM |
| O=S(=O)(NC1=NCCN1C(=S)SN1CCn2c1nsc2=S)c1ccc(Br)cc1 | 53.2 | > 100 µM | 31.6 | > 100 µM | > 100 µM | > 100 µM | 12.6 µM | > 100 µM | 63.9 | > 100 µM | 61 µM | > 100 µM | 25.5 µM | > 100 µM | 20.9 | 71.8 µM | 18.7 | 46.4 µM | 0.0273 µM | 36.7 µM |
| O=Cc1ccc(-c2cc(C=O)c(-c3cccs3)[nH]2)s1 | > 100 | 75 µM and > 100 µM | – | 75 µM and > 100 µM | 29.8 µM | 75 µM and > 100 µM | 53.5 µM | 58.3 µM and > 100 µM | 20.1 | 56.6 µM and > 100 µM | 34 µM | 75 µM and > 100 µM | 50.8 µM | 75 µM and > 100 µM | > 100 | 75 µM and > 100 µM | > 100 | 75 µM and > 100 µM | > 100 µM | 75 µM and > 100 µM |
| CC(C)(C#N)c1cc(Cn2cncn2)cc(C(C)(C)C#N)c1 | > 10000 | > 10000 µM | > 10000 | > 10000 µM | 933 µM | > 10000 µM | > 10000 µM | > 10000 µM | > 10000 | > 10000 µM | 720 µM | > 10000 µM | > 10000 µM | > 10000 µM | 393 | 2480 µM | – | 3590 µM | 297 µM | 2980 µM |
| O=c1c2cc(Cl)ccc2oc2ccc(OCCCCCN3CCCCC3)cc12 | 5.37 | 12 µM | 5.59 | 11.9 µM | 4.78 µM | 10.9 µM | 3.24 µM | 9.84 µM | 8.55 | 16.9 µM | 3.98 µM | 10.4 µM | 2.68 µM | 9 µM | 3.92 | 11.3 µM | 2.09 | 7.96 µM | 3.55 µM | 10.3 µM |
| CO[C@@H]1/C=C\C=C(/C)C(=O)NC2=CC(=O)C(NCCN(C)C)=C(C[C@@H](C)C[C@@H](OC)[C@@H](O)[C@H](C)/C=C(\C)[C@H]1OC(N)=O)C2=O | < 0.0125 | 7.14 µM | 0.0135 | 2.78 µM and 3.81 µM | – | 13.3 µM and 18.8 µM | 0.485 µM and 1.38 µM | 12.2 µM and 29.2 µM | 0.0197 | – | – | 14 µM and 26.7 µM | 0.0147 µM | 1.02 µM and 0.448 µM | 0.0344 | 3.23 µM and 9.76 µM | – | 21.3 µM and 12.3 µM | 0.966 µM and 0.175 µM | 11.7 µM and 2.1 µM |
| COC(=O)CCc1cc(OC)c2c(c1)C(C(=O)OC)C(c1ccc(OC)c(OC)c1)O2 (stereo not drawn) | – | > 100 µM | – | > 100 µM | > 100 µM and 38 µM | > 100 µM | > 100 µM and 45.5 µM | > 100 µM | – | > 100 µM | 84.9 µM and 36.8 µM | > 100 µM | > 100 µM and 19.6 µM | > 100 µM | – | > 100 µM | – | > 100 µM | – | > 100 µM |
| COC(=O)C1C(C(=O)OC)C2(OC)c3ccccc3-c3ccccc3C12 (stereo not drawn) | – | > 100 µM | – | > 100 µM | – | > 100 µM | – | > 100 µM | – | > 100 µM | – | > 100 µM | – | > 100 µM | – | 64.3 µM | – | 54.5 µM | – | > 100 µM |
| CSc1ccc(C2=NN(C(=O)c3ccc(F)cc3)C(c3ccc(F)cc3)C2)cc1 (stereo not drawn) | 18.2 | 36.2 µM | 7.21 | 19.2 µM | 11.7 µM | 26.9 µM | 16.6 µM | 37.5 µM | 12.3 | 25.6 µM | 12.6 µM | 25.1 µM | 2.2 µM | 5.83 µM | 2.24 | 6.52 µM | 18.8 | 34.6 µM | 9.72 µM | 24.6 µM |
| Cn1c([N+](=O)[O-])cnc1/C=C1\Oc2ccccc2C1=O | 0.37 | 2.61 µM | 0.593 | 2.87 µM | 1.02 µM | 5.12 µM | 0.24 µM | 0.601 µM | 1.9 | 5.06 µM | 0.309 µM | 1.71 µM | 0.412 µM | 2.46 µM | 0.168 | 1.38 µM | 0.255 | 0.663 µM | 0.762 µM | 3.37 µM |
| Cc1nc2sc(C(=O)Nc3cccc(Cl)c3C)c(N)c2cc1C(=O)/C=C/c1ccccc1 | 0.755 | 2.44 µM | 0.532 | 1.83 µM | 0.476 µM | 6.68 µM | 0.417 µM | 1.17 µM | 0.827 | 1.57 µM | 0.438 µM | 1.1 µM | 0.479 µM | 1.5 µM | 0.176 | > 50 µM | 0.304 | 8.61 µM | 0.371 µM | 2.11 µM |
| O=C(/C=C/c1ccc(F)cc1)c1ccc(Cl)cc1Cl | 37.2 | > 100 µM | 61.8 | > 100 µM | 33.5 µM | > 100 µM | 33 µM | 89.6 µM | 52.7 | > 100 µM | 91.8 µM | > 100 µM | 38.1 µM | > 100 µM | 22.1 | 52.8 µM | > 100 | > 100 µM | 30 µM | 80.8 µM |
| CC1=C2[C@@H](CC1)[C@]1(C)O[C@@](C3CCCCC3)(C[C@H]1OC(=O)CO)[C@H]2OC(=O)/C=C/c1ccccc1 | 8.65 | 26.1 µM | 0.318 | 15.1 µM | 7.19 µM | 20.5 µM | 5.92 µM | 22 µM | 6.3 | 18.4 µM | 0.359 µM | 14.9 µM | 8.34 µM | 24.7 µM | 7.45 | 24.1 µM | 11.5 | 27.9 µM | 3.68 µM | 12.2 µM |
| CC[C@H](NC(=O)[C@H](C)NC)C(=O)N1C[C@@H](O)C[C@H]1Cc1c(-c2[nH]c3cc(F)ccc3c2C[C@@H]2C[C@H](O)CN2C(=O)[C@H](CC)NC(=O)[C@H](C)NC)[nH]c2cc(F)ccc12 | > 65.3 | > 100 µM | > 100 | > 100 µM | > 100 µM | > 100 µM | > 100 µM | > 100 µM | 96.9 | > 100 µM | > 100 µM | > 100 µM | > 100 µM | > 100 µM | 1.51 | > 100 µM | 6.01 | > 100 µM | 7.7 µM | 40.8 µM |
| CCOC(=O)C(N)C[S][Sn]([CH3])([CH3])[Cl] (stereo not drawn) | > 100 | > 100 µM | > 100 | > 100 µM | > 100 µM | > 100 µM | > 100 µM | > 100 µM | > 100 | > 100 µM | > 100 µM | > 100 µM | > 100 µM | > 100 µM | > 55.2 | > 100 µM | > 100 | > 100 µM | > 100 µM | > 100 µM |
| COc1cc(/C=C/C(=O)CC(=O)/C=C/c2cc(OC)c(OC)c(OC)c2)cc(OC)c1OC | 3.34 | 20.2 µM | 3.59 | 37 µM | 5.76 µM | > 100 µM | 3.27 µM | 16.5 µM | 15.9 | > 100 µM | 3 µM | 13.1 µM | 4.58 µM | 63 µM | 2.58 | > 100 µM | 5.87 | 78.8 µM | 2.47 µM | 8.34 µM |
| O=C(O[C@H]1CN[C@H](C#Cc2cc3ncnc(Nc4ccc5c(ccn5Cc5cc(F)ccc5F)c4)c3s2)C1)N1CCOCC1 | 4.25 | 14.6 µM | 2.57 | 12.8 µM | 3.07 µM | 10.1 µM | 0.187 µM | > 21.7 µM | 3.56 | 7.35 µM | 0.339 µM | 7.05 µM | 4.57 µM | 9.25 µM | 5.59 | 24.9 µM | 5.35 | 12.7 µM | 0.357 µM | 3.9 µM |
| O=c1c2c(nc3n1CCS3)[nH]c1ccccc12 | > 100 | > 100 µM | > 100 | > 100 µM | 90.1 µM | > 100 µM | 76.8 µM | > 100 µM | > 100 | > 100 µM | 94.3 µM | > 100 µM | > 100 µM | > 100 µM | > 100 | > 100 µM | > 100 | > 100 µM | > 100 µM | > 100 µM |
| COc1ccc(/C=N\NC(=O)CN2CCN(c3cc4c(cc3F)c(=O)c(C(=O)N/N=C/c3ccc(OC)c(OC)c3)cn4C3CC3)CC2)cc1OC | 3.1 | 10.8 µM | 2.72 | 8.21 µM | 4.3 µM | 75.9 µM | 9.49 µM | 91.9 µM | 3.52 | 12.7 µM | > 100 µM | > 100 µM | 3.42 µM | 10.7 µM | 3.31 | > 100 µM | 2.72 | 7.28 µM | 2.25 µM | 6.9 µM |
| CC/C(C)=C1\CCC(CN2CCOCC2)C1=O (stereo not drawn) | – | 30.6 µM | – | 21.7 µM | – | 41.6 µM | – | 5.99 µM | – | 39.4 µM | – | 36.6 µM | – | > 100 µM | – | 32 µM | – | 32 µM | – | 32.4 µM |
